Here are results for two molecules from patent US9877945B2 (priority 2013, dated 2018).

The data set has as its system Clostridium perfringens strain 56. Particulars: for Number of birds with macroscopic necrotic enteritis lesions: lesion score 2 or more = positive; for Birds with macroscopic necrotic enteritis lesions, Total (%) (positive chicken in total) / Number of birds with macroscopic necrotic enteritis lesions, total: total of days 21-23.
[1] abbreviates: day 21, product on silica carrier in feed 5 / 2.5 / 2 kg/ton in weeks 1 / 2 / 3 (low conc for monobutyrate).
Setting [2] is: day 22, product on silica carrier in feed 5 / 2.5 / 2 kg/ton in weeks 1 / 2 / 3 (low conc for monobutyrate).
Where [3] appears, read: day 23, product on silica carrier in feed 5 / 2.5 / 2 kg/ton in weeks 1 / 2 / 3 (low conc for monobutyrate).
[4] abbreviates: product on silica carrier in feed 5 / 2.5 / 2 kg/ton in weeks 1 / 2 / 3 (low conc for monobutyrate).
[5] abbreviates: product on silica carrier in feed at high conc 7.5 / 6 / 5.5 kg/ton in weeks 1 / 2 / 3.

Like-named read-outs stand apart in the source and are kept apart here.

As for `CCCC(=O)OCC(O)CO` (centres unmarked) [glyceryl monobutyrate], the “Number of birds with macroscopic necrotic enteritis lesions” value reads like this: under setting [1], 5/9; (day 21, product on silica carrier in feed at high conc 7.5 / 6 / 5.5 kg/ton in weeks 1 / 2 / 3) 4/9; under setting [2], 3/9; (day 22, product on silica carrier in feed at high conc 7.5 / 6 / 5.5 kg/ton in weeks 1 / 2 / 3) 5/9; under setting [3], 2/10; (day 23, product on silica carrier in feed at high conc 7.5 / 6 / 5.5 kg/ton in weeks 1 / 2 / 3) 3/8. The “chickens died during the trial” value (pen 3: higher concentration in feed (7.5 / 6 / 5.5 kg/ton)) was 2. Besides, the “Birds with macroscopic necrotic enteritis lesions, Total (%) (positive chicken in total)” value by setting is: under setting [4], 36%; under setting [5], 46%. Besides, the “Number of birds with macroscopic necrotic enteritis lesions, total” value is listed as 10/28 under setting [4] and 12/26 under setting [5].
On to `CCCC(=O)OCC(COC(=O)CCC)OC(=O)CCC` [glyceryl tributyrate], for which the “Result in preventing Clostridium perfringens-induced necrotic enteritis compared with glyceryl monobutyrate at either concentration (FIG. 1)” value (added to the feed, P value <0.05 taken as significant) was “significantly better result”. Moreover, the “Number of birds with macroscopic necrotic enteritis lesions” value by setting is: under setting [1], 3/9; under setting [2], 2/9; under setting [3], 2/11. For the same molecule, under setting [4], the “Birds with macroscopic necrotic enteritis lesions, Total (%) (positive chicken in total)” value came to 24%. For the same molecule, under setting [4], the “Number of birds with macroscopic necrotic enteritis lesions, total” value is 7/29.
